Source: patent US20110150961A1, “ANTI-INFECTIVE CATHETERS” (priority 2008, published 2011)
In brackets after ≈: the same amount, converted by molar mass. Several values for one entry are separate records, joined by “and”; a condition that tells them apart may be missing. Identical values can stand only once. Like-named read-outs stand apart in the source and are kept apart here.

Columns and labels:
S. epidermidis [1] = assay: Broth microdilution MIC and MBC (Example 9); type: cell-based
Protocol: (§1) Minimal bactericidal concentrations (MBCs) were determined for bacterial isolates associated with catheter-related infections (Attachment 18.18). Broth microdilution MBCs were determined by first performing the standard broth microdilution technique to establish the 5-FU MIC for each organism (CLSI M7-A7). […] were sampled to determine the MBC as defined as the concentration at which a ≧99.9% reduction in the colony forming units relative to the starting inoculum concentration was achieved. When the MBC:MIC ratio for 5-FU was […].

K. pneumoniae [2] = assay: Broth microdilution MIC and MBC (Example 9); type: cell-based
Protocol: as §1

E. coli [3] = assay: Broth microdilution MIC and MBC (Example 9); type: cell-based
Protocol: as §1

P. aeruginosa [4] = assay: Broth microdilution MIC and MBC (Example 9); type: cell-based
Protocol: as §1

E. faecalis [5] = assay: Broth microdilution MIC and MBC (Example 9); type: cell-based
Protocol: as §1

S. aureus [6] = assay: Broth microdilution MIC and MBC (Example 9); type: cell-based
Protocol: as §1

[7] = tested on: S. epidermidis and S. aureus
Description: Microbial resistance is a concern associated with repeated exposure to anti-microbial agents.

K. pneumonia ATCC 700603 = assay: MIC and MBC on ATCC control strains (Example 10); type: cell-based, K. pneumoniae
Description: (§2) The Gram-positive organisms tested were S. epidermidis ATCC 12228, S. aureus ATCC 25923, and E. faecalis ATCC 29212. The Gram-negative strains tested were P. aeruginosa ATCC 27853, K. pneumonia ATCC 700603 and E. coli ATCC 25922.

[8] = IV, cited from earlier work
S. epidermidis [9] = assay: MIC testing by broth microdilution, clinical isolates (Example 4); type: cell-based
Protocol: (§3) The Gram-positive organisms tested were S. epidermidis, methicillin resistant S. epidermidis (MRSE), S. aureus, methicillin resistant S. aureus (MRSA), E. faecalis and vancomycin resistant E. faecalis, the Gram-negative organisms tested were P. aeruginosa, E. coli and K. pneumoniae .
(§4) For MIC testing, all isolates were tested against 5-FU by broth microdilution following CLSI methodology (M7-A7).

K. pneumoniae [10] = assay: as above; type: cell-based; conditions: Klebsiella pneumoniae, N=104
Protocol: as §3, §4

E. coli [11] = assay: as above; type: cell-based; conditions: Escherichia coli, N=102
Protocol: as §3, §4

P. aeruginosa [12] = assay: as above; type: cell-based; conditions: Pseudomonas aeruginosa, N=100
Protocol: as §3, §4

E. faecalis [13] = assay: as above; type: cell-based
Protocol: as §3, §4

S. aureus [14] = assay: as above; type: cell-based
Protocol: as §3, §4

mammalian species = mammalian species (PDR 1998); cited from earlier work
Gram-negative isolates = assay: MIC testing by broth microdilution, summary (Example 4); type: cell-based; conditions: range over organisms
Protocol: as §3, §4

Gram-positive organisms = assay: as above; type: cell-based; conditions: range over organisms
Protocol: as §3, §4

P. aeruginosa ATCC 27853 = assay: MIC and MBC on ATCC control strains (Example 10); type: cell-based
Description: as §2

E. faecalis ATCC 29212 = assay: MIC and MBC on ATCC control strains (Example 10); type: cell-based
Description: as §2

[15] = tested on: S. epidermidis ATCC 12228; assay: MIC and MBC on ATCC control strains (Example 10); type: cell-based
Description: as §2

S. aureus ATCC 25923 = assay: MIC and MBC on ATCC control strains (Example 10); type: cell-based
Description: as §2

For `O=c1[nH]cc(F)c(=O)[nH]1` [5-FU, 5-fluorouracil], the MIC range (S. epidermidis [1]; S. epidermidis, 10 strains) was 0.03 to 0.25 µg/mL, the “bactericidal, number of strains” value (S. epidermidis [1]; S. epidermidis, by MBC:MIC ratio) was 6 of the 11 and the MBC range (S. epidermidis [1]; S. epidermidis, ≧99.9% reduction in CFU) was 0.03 to 0.25 µg/mL. For the same compound, the MIC (S. epidermidis [1]; Staphylococcus epidermidis, methicillin resistant S. epidermidis, N=8, read-out: averaged MIC) was 0.08 µg/mL (≈ 0.615 µM), the MBC (K. pneumoniae [2]; Klebsiella pneumoniae, ≧99.9% reduction in CFU, read-out: MBC (all strains)) was over 512 µg/mL and the bactericidal activity (K. pneumoniae [2]; by MBC:MIC ratio) was “no bactericidal activity”. For the same compound, the MIC range (E. coli [3]; 10 strains) was 0.25 to 64 µg/mL, the “bactericidal, number of strains” value (E. coli [3]; by MBC:MIC ratio) was 1 of the 10 and the MBC (P. aeruginosa [4]; Pseudomonas aeruginosa, ≧99.9% reduction in CFU, read-out: MBC (all strains)) was over 512 µg/mL. The bactericidal activity (P. aeruginosa [4]; by MBC:MIC ratio) was “no bactericidal activity”, the MIC range (E. faecalis [5]; 10 strains) was 0.008 to 0.12 µg/mL and the “bactericidal, number of strains” value (E. faecalis [5]; by MBC:MIC ratio) was 8 of the 10. For the same compound, the MBC range (E. faecalis [5]; ≧99.9% reduction in CFU) was 0.008 to 0.25 µg/mL, the MIC range (S. aureus [6]; S. aureus, 11 strains) was 0.03 to 0.25 µg/mL and the “bactericidal, number of strains” value (S. aureus [6]; S. aureus, by MBC:MIC ratio) was 4 of the 11. For the same compound, the MBC range (S. aureus [6]; S. aureus, ≧99.9% reduction in CFU) was 0.12 to 32 µg/mL, the MIC (S. aureus [6]; Staphylococcus aureus, methicillin resistant S. aureus, N=5, read-out: averaged MIC) was 0.12 µg/mL (≈ 0.923 µM) and the “Historical 5-FU MIC values” [7] was 0.06 to 0.12 µg/mL. The MBC (K. pneumonia ATCC 700603; Klebsiella pneumoniae, ATCC700603, read-out: MBC) was over 100 µg/mL, the MIC (K. pneumonia ATCC 700603; Klebsiella pneumoniae, ATCC700603, read-out: MIC) was 100 µg/mL (≈ 769 µM) and the plasma levels ([8]; continuous infusion) was “about 10 μM”. The plasma concentrations ([8]; rapid infusion) was 0.1-1.0 mM and 13-130 μg/ml, the MIC50 (S. epidermidis [9]; Oxacillin-R, N=78) was 0.06 µg/mL (≈ 0.461 µM) and the MIC50 (S. epidermidis [9]; Oxacillin-S, N=22) was 0.06 µg/mL (≈ 0.461 µM). For the same compound, the MIC90 (S. epidermidis [9]; Staphylococcus epidermidis, Oxacillin-R, N=78) was 0.5 µg/mL (≈ 3.84 µM), the MIC90 (S. epidermidis [9]; Staphylococcus epidermidis, Oxacillin-S, N=22) was 0.12 µg/mL (≈ 0.923 µM) and the MIC90 (S. epidermidis [9]; Staphylococcus epidermidis, all, N=100) was 0.25 µg/mL (≈ 1.92 µM). It also gave an MIC50 (S. epidermidis [9]; Staphylococcus epidermidis, all, N=100, read-out: MIC50) of 0.06 µg/mL (≈ 0.461 µM), an MIC50 (K. pneumoniae [10]) of 128 µg/mL (≈ 984 µM) and an MIC90 (K. pneumoniae [10]) of over 512 µg/mL. For the same compound, the MIC50 (E. coli [11]) was 32 µg/mL (≈ 246 µM), the MIC90 (E. coli [11]) was 64 µg/mL (≈ 492 µM) and the MIC50 (P. aeruginosa [12]) was 16 µg/mL (≈ 123 µM). It also gave an MIC90 (P. aeruginosa [12]) of 64 µg/mL (≈ 492 µM), an MIC50 (E. faecalis [13]; Enterococcus faecalis, all, N=101, read-out: MIC50) of 0.015 µg/mL (≈ 0.115 µM) and an MIC90 (E. faecalis [13]; Enterococcus faecalis, all, N=101, read-out: MIC90) of 0.06 µg/mL (≈ 0.461 µM). It also gave an MIC50 (E. faecalis [13]; Vancomycin-R, N=21) of 0.015 µg/mL (≈ 0.115 µM), an MIC90 (E. faecalis [13]; Vancomycin-R, N=21) of 0.06 µg/mL (≈ 0.461 µM) and an MIC50 (E. faecalis [13]; Vancomycin-S, N=80) of 0.015 µg/mL (≈ 0.115 µM). The MIC90 (E. faecalis [13]; Vancomycin-S, N=80) was 0.06 µg/mL (≈ 0.461 µM), the MIC50 (S. aureus [14]; Oxacillin-R, N=40) was 0.12 µg/mL (≈ 0.923 µM) and the MIC50 (S. aureus [14]; Oxacillin-S, N=61) was 0.12 µg/mL (≈ 0.923 µM). For the same compound, the MIC90 (S. aureus [14]; Staphylococcus aureus, Oxacillin-R, N=40) was 0.12 µg/mL (≈ 0.923 µM), the MIC90 (S. aureus [14]; Staphylococcus aureus, Oxacillin-S, N=61) was 0.25 µg/mL (≈ 1.92 µM) and the MIC90 (S. aureus [14]; Staphylococcus aureus, all, N=101) was 0.25 µg/mL (≈ 1.92 µM). For the same compound, the MIC50 (S. aureus [14]; Staphylococcus aureus, all, N=101, read-out: MIC50) was 0.12 µg/mL (≈ 0.923 µM), the LD50 (mammalian species) was 94 to 880 mg/kg and the MIC50 (Gram-negative isolates) was 16 to 128 µg/mL (≈ 123 to 984 µM). It also gave an MIC50 (Gram-positive organisms) of 0.015 to 0.12 µg/mL (≈ 0.115 to 0.923 µM), an MBC (P. aeruginosa ATCC 27853; Pseudomonas aeruginosa, ATCC27853, read-out: MBC) of over 100 µg/mL and an MIC (P. aeruginosa ATCC 27853; Pseudomonas aeruginosa, ATCC27853, read-out: MIC) of over 100 µg/mL. For the same compound, the MBC (E. faecalis ATCC 29212; Enterococcus faecalis, ATCC29212, read-out: MBC) was 3.7 µg/mL (≈ 28.4 µM), the MIC (E. faecalis ATCC 29212; Enterococcus faecalis, ATCC29212, read-out: MIC) was 3.7 µg/mL (≈ 28.4 µM) and the MBC ([15]; Staphylococcus epidermidis, ATCC12228, read-out: MBC) was 0.41 µg/mL (≈ 3.15 µM). For the same compound, the MIC ([15]; Staphylococcus epidermidis, ATCC12228, read-out: MIC) was 0.14 µg/mL (≈ 1.08 µM), the MBC (S. aureus ATCC 25923; Staphylococcus aureus, ATCC25923, read-out: MBC) was 1.23 µg/mL (≈ 9.46 µM) and the MIC (S. aureus ATCC 25923; Staphylococcus aureus, ATCC25923, read-out: MIC) was 1.23 µg/mL (≈ 9.46 µM).

`O=c1[nH]c(=O)n([C@H]2C[C@H](O)[C@@H](CO)O2)cc1F` [Flox, floxuridine] gave an MBC (K. pneumonia ATCC 700603) of 3.7 µg/mL (≈ 15 µM), an MIC (K. pneumonia ATCC 700603) of 1.23 µg/mL (≈ 5 µM) and an MBC (P. aeruginosa ATCC 27853) of over 100 µg/mL. For the same compound, the MIC (P. aeruginosa ATCC 27853) was over 100 µg/mL, the MBC (E. faecalis ATCC 29212) was 11.11 µg/mL (≈ 45.1 µM) and the MIC (E. faecalis ATCC 29212) was 3.7 µg/mL (≈ 15 µM). It also gave an MBC [15] of under 0.05 µg/mL, an MIC [15] of under 0.05 µg/mL and an MBC (S. aureus ATCC 25923) of 0.14 µg/mL (≈ 0.569 µM). It also gave an MIC (S. aureus ATCC 25923) of under 0.05 µg/mL.
